Assays:
M. tuberculosis isolates [1] = type: cell-based, Mycobacterium tuberculosis
[2] = human, in vivo
[3] = in vivo; cited from earlier work
M. tuberculosis isolates [4] = type: cell-based, Mycobacterium tuberculosis; remark: listed apart in the source

| SMILES | Phenotypic DST (M. tuberculosis isolates [1]) | adverse effect for which the drug was stopped [2] | other results |
| --- | --- | --- | --- |
| NCC[C@H](O)C(=O)N[C@@H]1C[C@H](N)[C@@H](O[C@H]2O[C@H](CN)[C@@H](O)[C@H](O)[C@H]2O)[C@H](O)[C@H]1O[C@H]1O[C@H](CO)[C@@H](O)[C@H](N)[C@H]1O [Amikacin] | S |  | Phenotypic susceptibility (M. tuberculosis isolates [1]): phenotypically susceptible; Routine phenotypic DST (M. tuberculosis isolates [1]): susceptible |
| NNC(=O)c1ccncc1 [Isoniazid] |  | vision problems |  |
| CC1COc2c(N3CCN(C)CC3)c(F)cc3c(=O)c(C(=O)O)cn1c23 (stereo not drawn) [Ofloxacin] | S and R |  |  |
| NC(=O)c1cnccn1 [Pyrazinamide] |  | persistent arthralgias and changes in vision |  |
| COc1nc2ccc(Br)cc2cc1[C@@H](c1ccccc1)[C@@](O)(CCN(C)C)c1cccc2ccccc12 [bedaquiline] |  |  | half-life [3]: 5.5 months; acquired resistance to bedaquiline (M. tuberculosis isolates [4]): 39% |
| CC[C@@H](CO)NCCN[C@@H](CC)CO [ethambutol] |  | persistent arthralgias and changes in vision |  |
